Data: article PMC4335062, “Data-Driven Prediction and Design of bZIP Coiled-Coil Interactions” (PLoS Computational Biology, 2015)
Where two headings read alike, the source gives them in different places. Where no end group is shown, it is not given here.

Columns and labels:
Assay in all cases: Direct-binding FRET assay
NFIL3 = target: T1, NFIL3 (Homo sapiens, UniProt Q16649); details: read-out: Kd
T1 construct: made in house
T1 sequence (Q16649 73-136 limits assumed): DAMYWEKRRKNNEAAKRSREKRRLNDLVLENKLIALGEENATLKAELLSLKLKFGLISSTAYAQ
Description: (§1) The direct binding assay was performed manually in 384-well plates and is similar to a previously described assay. Wells were filled with 20 μL of 1 mM TCEP-HCl. A 4 μM stock of acceptor protein was made fresh in 1 mM TCEP-HCl, and 20 μL was titrated in 2-fold dilutions over the wells. […] The direct-binding FRET data were fit as previously described. Briefly, the Kd of the designed peptide homodimer was experimentally determined and used with previously determined target homodimer Kd values to determine the heterodimer Kd. The homodimer Kd values used for the human bZIPs were from; experiments done by […] et al. used the same protein constructs for the human bZIP proteins, the same buffer conditions, and the same assay. The fitting used a system of ordinary differential equations to describe the concentrations of homo and heterodimers formed by the donor (D) and acceptor (A) as a function of the heterodimer Kd. MATLAB was used to simulate the binding experiment for different Kd values, and the value that gave the best agreement between simulation and experiment was assigned. A minimum 15% change in the donor fluorescence upon titrating the acceptor peptide from 0 to 1000 nM was required for a fit to be attempted. If this minimum was not met, the interaction was classified as “NS” for no signal change. […] These interactions were marked “AS” to indicate anomalous signal. We attributed this to interactions between the peptides, the dyes and the walls of the assay plates at low concentrations. These curves could not be fit, given their unusual shapes at low concentrations of acceptor. For such curves, we removed the first five points and re-fit the data. […] One example of this is increasing concentrations of acceptor causing an increase in donor fluorescence.

FOSL1 = target: T2, FOSL1 (Homo sapiens, UniProt P15407); details: read-out: Kd
T2 construct: made in house
T2 sequence (P15407 105-168 limits assumed): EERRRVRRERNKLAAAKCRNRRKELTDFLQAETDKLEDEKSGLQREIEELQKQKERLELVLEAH
Description: as §1

ATF5 = target: T3, ATF5 (Homo sapiens, UniProt Q9Y2D1); details: read-out: Kd
T3 construct: made in house
T3 sequence (Q9Y2D1 208-271 limits assumed): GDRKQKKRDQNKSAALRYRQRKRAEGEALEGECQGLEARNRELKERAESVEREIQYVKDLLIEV
Description: as §1

HLF = target: T4, HLF (Homo sapiens, UniProt Q16534); details: read-out: Kd
T4 construct: made in house
T4 sequence (Q16534 225-288 limits assumed): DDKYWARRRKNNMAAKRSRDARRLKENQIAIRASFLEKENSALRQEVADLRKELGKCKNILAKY
Description: as §1

CREBZF = target: T5, CREBZF (Homo sapiens, UniProt Q9NS37); details: read-out: Kd
T5 construct: made in house
T5 sequence (Q9NS37 204-267 limits assumed): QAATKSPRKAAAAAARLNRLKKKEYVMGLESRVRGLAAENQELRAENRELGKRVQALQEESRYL
Description: as §1

NFE2L1 = NFE2L1 (Homo sapiens, UniProt Q14494); design: made in house; details: read-out: Kd
Description: as §1

MAFB = MAFB (Homo sapiens, UniProt Q9Y5Q3); design: made in house; details: mean or single, read-out: Kd
Description: as §1

BACH2 = BACH2 (Homo sapiens, UniProt Q9BYV9); design: made in house; details: read-out: Kd
Description: as §1

MAF = MAF (Homo sapiens, UniProt O75444); design: made in house; details: mean or single, read-out: Kd
Description: as §1

ATF6 = ATF6 (Homo sapiens, UniProt P18850); design: made in house; details: read-out: Kd
Description: as §1

BACH1 = BACH1 (Homo sapiens, UniProt O14867); design: made in house; details: read-out: Kd
Description: as §1

[1] = 4°C, C-terminal fluorescein design as donor, TAMRA target titrated
[2] = 4°C, C-terminal rhodamine design, mean or single
[3] = 4°C, N-terminal rhodamine design, mean or single
[4] = 23°C, C-terminal fluorescein design as donor, TAMRA target titrated
[5] = 23°C, C-terminal rhodamine design, repeat 1
[6] = 23°C, C-terminal rhodamine design, repeat 2
[7] = 23°C, N-terminal rhodamine design, mean or single
[8] = 37°C, C-terminal fluorescein design as donor, TAMRA target titrated
[9] = 37°C, C-terminal rhodamine design, mean or single
[10] = 37°C, C-terminal rhodamine design, repeat 1
[11] = 37°C, C-terminal rhodamine design, repeat 2
[12] = 37°C, C-terminal rhodamine design, repeat 3
[13] = 37°C, N-terminal rhodamine design, mean or single
[14] = 23°C, C-terminal rhodamine design, mean or single
[15] = 23°C, N-terminal rhodamine design, repeat 1
[16] = 37°C, N-terminal rhodamine design, repeat 1
[17] = 37°C, N-terminal rhodamine design, repeat 2
[18] = 23°C, N-terminal rhodamine design, repeat 2
[19] = 4°C, C-terminal rhodamine design
[20] = 4°C, N-terminal rhodamine design
[21] = 23°C, C-terminal rhodamine design
[22] = 23°C, N-terminal rhodamine design
[23] = 37°C, C-terminal rhodamine design
[24] = 37°C, N-terminal rhodamine design

Measured: Kd

Chain of NFE2L1 (Q14494 654-717 limits assumed): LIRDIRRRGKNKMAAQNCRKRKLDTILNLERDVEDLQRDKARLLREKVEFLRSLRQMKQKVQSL
Chain of BACH1 (O14867 557-620 limits assumed): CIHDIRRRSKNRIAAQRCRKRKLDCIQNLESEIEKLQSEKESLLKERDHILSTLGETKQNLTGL
Chain of ATF6 (P18850 306-369 limits assumed): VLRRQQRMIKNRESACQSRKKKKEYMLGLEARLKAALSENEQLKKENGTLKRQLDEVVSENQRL
Chain of BACH2 (Q9BYV9 646-709 limits assumed): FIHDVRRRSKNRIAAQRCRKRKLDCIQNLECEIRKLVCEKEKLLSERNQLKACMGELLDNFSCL

NQIKTLRTRLSKLRKDNLQLEKDIANLERKAKDLRAEKEQLEYEL [ATF4-d1]
0.0424 µM: NFIL3; [1]
0.46 µM: MAF; [23]
< 0.2 µM: CREBZF; [3]
0.0355 µM: ATF5; [1]
> 5 µM: NFIL3; [5] | NFIL3; [6] | NFIL3; [9] | NFIL3; [10] | NFIL3; [11] | NFIL3; [12] | FOSL1; [1] | FOSL1; [3] | ATF5; [2] | ATF5; [14] | ATF5; [5] | ATF5; [6] | ATF5; 23°C, C-terminal rhodamine design, repeat 3 | ATF5; [9] | ATF5; [10] | ATF5; [11] | ATF5; [12] | HLF; [2] | HLF; [9] | CREBZF; [2] | CREBZF; [14] | CREBZF; [7] | NFE2L1; [2] | NFE2L1; [14] | MAFB; [19] | MAFB; [21] | BACH2; [2] | BACH2; [4] | BACH2; [7] | BACH2; [9] | MAF; [19] | MAF; [21] | BACH1; [2] | BACH1; [18]
0.402 µM: MAFB; [23]
0.0228 µM: NFIL3; [2]
> 1 µM: NFIL3; [3] | NFIL3; [4] | NFIL3; [7] | NFIL3; [8] | NFIL3; [13] | FOSL1; [2] | FOSL1; [4] | FOSL1; [14] | FOSL1; [7] | FOSL1; [8] | FOSL1; [9] | FOSL1; [13] | ATF5; [15] | ATF5; [8] | ATF5; [13] | ATF5; [16] | ATF5; [17] | ATF5; 37°C, N-terminal rhodamine design, repeat 3 | HLF; [1] | HLF; [3] | HLF; [4] | HLF; [14] | HLF; [7] | HLF; [8] | HLF; [13] | CREBZF; [4] | CREBZF; [8] | CREBZF; [9] | CREBZF; [13] | NFE2L1; 4°C, N-terminal rhodamine design, repeat 1 | NFE2L1; 4°C, N-terminal rhodamine design, repeat 2 | NFE2L1; [7] | NFE2L1; [15] | NFE2L1; [18] | NFE2L1; [9] | NFE2L1; [13] | NFE2L1; [16] | NFE2L1; [17] | MAFB; [20] | MAFB; [22] | MAFB; [24] | BACH2; [1] | BACH2; [3] | BACH2; [14] | BACH2; [8] | BACH2; [13] | MAF; [20] | MAF; [22] | MAF; [24] | ATF6; [1] | ATF6; [2] | ATF6; [3] | ATF6; [4] | ATF6; [14] | ATF6; [7] | ATF6; [8] | ATF6; [9] | ATF6; [13] | BACH1; [1] | BACH1; [4] | BACH1; [14] | BACH1; [15] | BACH1; [8] | BACH1; [9] | BACH1; [13] | BACH1; [16] | BACH1; [17]
